Patent EP1003775B1, “HEPATITIS C INHIBITOR PEPTIDES” (BOEHRINGER INGELHEIM (CANADA) LTD., priority 1997, dated 2005)

System: NS3 protease
Assay: HCV NS3 protease inhibition (recombinant NS3 protease radiometric assays)
Assay type: biochemical, hepatitis C virus
Conditions: qualitative statement
Description: The substrate used for the HCV NS3 protease radiometric assay, DDIVPC-SMSYTW, is cleaved between the cysteine and the serine residues by the enzyme. The sequence DDIVPC-SMSYTW corresponds to the NS5A/NS5B natural cleavage site in which the cysteine residue in P2 has been substituted for a proline. The peptide substrate DDIVPC-SMSYTW and the tracer biotin-DDIVPC-SMS[^125I-Y]TW were incubated with the recombinant NS3 protease in the absence or in the presence of inhibitors. The separation of substrate from products was performed by adding avidin-coated agarose beads to the assay mixture followed by filtration. The amount of SMS [^125I-Y]TW product found in the filtrate (with or without inhibitor) allowed for the calculation of the percentage of substrate conversion and of the percentage of inhibition.
The assay was performed in a 96-well polypropylene plate. Each well contained: • 20 µL substrate/tracer in assay buffer; • 10 µL ± inhibitor in 20% DMSO/assay buffer; • 10 µL NS3 protease 1b. […]
The filtrates were counted on a Packard® TopCount instrument using a ^125I-liquid protocol for 1 minute. The %inhibition was calculated with the following equation: 100- [(countsinh -countsblank ) / (countsctl -countsblank ) x 100] […]
The value of IC50 was calculated in the same manner as in Example 19.

Ac-DDIVPC-OH [Ac-D-D-I-V-P-C-OH]
inhibition of the NS3 protease: inhibitory
